Drawing on patent publication US20230075856A1, “CYCLIC SULFAMIDE COMPOUNDS FOR TREATMENT OF HBV” (Assembly Biosciences, Inc., priority 2018, published 2023), this text covers EC50 for 32 molecules.

Structures are written as SMILES.

The first experiment relates to HBV viral load production from HepAD38 cells. The experiment is described as follows: Viral production from HepAD38 cells: viral load in supernatant by qPCR of the HBV core sequence. It is filed as cell-based. Particulars: 5 days incubation, qPCR of supernatant HBV DNA vs DMSO control, read-out: viral load lowering EC50 (Activity). The method, boiled down: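 HepAD38 cells seeded at 50,000/well in tetracycline-free medium with 2% FBS, treated with compounds (final top concentration 10 μM) for 5 days at 37 °C. Supernatant HBV DNA quantified by TaqMan qPCR of core sequence against HBV DNA standards, relative to DMSO controls; EC50 by four-parameter logistic fit.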
For orientation: Quantitative PCR measures a nucleic acid by following its amplification.
In general, EC50 refers to the concentration needed to bring the measured effect to its halfway point. Take `CN(C)CC(C)(C)COc1ccc(-c2ncc(CNC(=O)C3CC(C(=O)Nc4ccc(F)c(Cl)c4)N(C)S(=O)(=O)N3)s2)cc1` (single isomer, unassigned) [Compound 943-ISOMER-B, N3-(3-chloro-4-fluoro-phenyl)-N5-[[2-[4-[3-(dimethylamino)-2,2-dimethyl-propoxy]phenyl]thiazol-5-yl]methyl]-2methyl-1,1-dioxo-1,2,6-thiadiazinane-3,5-dicarboxamide]: the EC50 was 100 to 10000 nM.

For `Cc1nc(-c2ccc(OCCN3CCCCC3)cc2)sc1CNC(=O)C1CC(C(=O)Nc2ccc(F)c(Cl)c2)N(C)S(=O)(=O)N1` (single isomer, unassigned) [1087-ISOMER-B, N3-(3-chloro-4-fluoro-phenyl)-2-methyl-N5-[[4-methyl-2-[4-[2-(1-piperidyl)ethoxy]phenyl]thiazol-5-yl]methyl]-1,1-dioxo-1,2,6-thiadiazinane-3,5-dicarboxamide], the EC50 was 50 to 100 nM.

As for `CN1C(C(=O)Nc2ccc(F)c(Cl)c2)CC(C(=O)NCc2ccc(Cl)cc2)NS1(=O)=O` (single isomer, unassigned) [Compound 729-ISOMER-B, N3-(3-chloro-4-fluoro-phenyl)-N5-[(4-chlorophenyl)methyl]-2-methyl-1,1-dioxo-1,2,6-thiadiazinane-3,5-dicarboxamide], the EC50 is 100 to 10000 nM. `CN1C(C(=O)Nc2ccc(F)c(Cl)c2)CC(C(=O)NCc2cnc(-c3cccnc3)s2)NS1(=O)=O` (single isomer, unassigned; isomer-b) [Compound 911-ISOMER-B, N3-(3-chloro-4-fluoro-phenyl)-2-methyl-1,1-dioxo-N5-[[2-(3-pyridyl)thiazol-5-yl]methyl]-1,2,6-thiadiazinane-3,5-dicarboxmaide]: the EC50 is less than 50 nM. The same measure, in the same setting: the figure for `CN1C(C(=O)Nc2ccc(F)c(Cl)c2)CC(C(=O)NCc2cnc(-c3ccc(F)cc3)s2)NS1(=O)=O` (single isomer, unassigned) [Compound 916-ISOMER-B, N3-(3-chloro-4-fluoro-phenyl)-N5-[[2-(4-fluorophenyl)thiazol-5-yl]methyl]-2-methyl-1,1-dioxo-1,2,6-thiadiazinane-3,5-dicarboxamide] is less than 50 nM; for `Cc1nc(-c2ccccc2)sc1CNC(=O)C1CC(C(=O)Nc2ccc(F)c(Cl)c2)N(C)S(=O)(=O)N1` (single isomer, unassigned) [Compound 914-ISOMER-B, N3-(3-chloro-4-fluoro-phenyl)-2-methyl-N5-[(4-methyl-2-phenyl-thiazol-5-yl)methyl]-1,1-dioxo-1,2,6-thiadiazinane-3,5-dicarboxamide] it is 50 to 100 nM. Same read-out and setting: the figure for `CN1C(C(=O)Nc2ccc(F)c(Cl)c2)CC(C(=O)NCc2cnc(Cl)s2)NS1(=O)=O` (single isomer, unassigned) [1199-ISOMER-B, N3-(3-chloro-4-fluoro-phenyl)-N5-[(2-chlorothiazol-5-yl)methyl]-2-methyl-1,1-dioxo-1,2,6-thiadiazinane-3,5-dicarboxamide] is 100 to 10000 nM; for `COC(=O)N1CCC(NC(=O)C2CC(C(=O)Nc3ccc(F)c(Cl)c3)N(CC(F)(F)F)S(=O)(=O)N2)CC1` (single isomer, unassigned; isomer-a) [Compound 893-ISOMER-A, methyl 4-[[5-[(3-chloro-4-fluroo-phenyl)carbamoyl]-1,1-dioxo-6-(2,2,2-triflurooethyl)-1,2,6-thiadiazinane-3-carbonyl]amino]piperidine-1-carboxylate] it is less than 50 nM. Consider `CCN1C(C(=O)Nc2ccc(F)c(Cl)c2)CC(C(=O)NC2CCN(C(=O)OC)CC2)NS1(=O)=O` (single isomer, unassigned) [Compound 890-ISOMER-B, methyl 4-[[5-[(3-chloro-4-fluoro-phenyl)carbamoyl]-6-ethyl-1,1-dioxo-1,2,6-thiadiazinane-3-carbonyl]amino]piperidine-1-carboxylate], for which the EC50 was 100 to 10000 nM. In the case of `CN1C(C(=O)Nc2ccc(F)c(Cl)c2)CC(C(=O)NCc2nc3ccccc3s2)NS1(=O)=O` (single isomer, unassigned) [Compound 689-ISOMER-B, N5-(1,3-benzothiazol-2-ylmethyl)-N3-(3-chloro-4-fluoro-phenyl)-2-methyl-1,1-dioxo-1,2,6-thiadiazinane-3,5-dicarboxamide], the EC50 was less than 50 nM. On to `CN1C(C(=O)Nc2ccc(F)c(Cl)c2)CC(C(=O)NCc2sc(-c3ccccc3F)nc2C(F)(F)F)NS1(=O)=O` (single isomer, unassigned) [1082-ISOMER-B, N3-(3-chloro-4-fluoro-phenyl)-N5-[[2-(2-fluorophenyl)-4-(trifluoromethyl)thiazol-5-yl]methyl]-2-methyl-1,1-dioxo-1,2,6-thiadiazinane-3,5-dicarboxamide], for which the EC50 was 50 to 100 nM. Same read-out and setting: the figure for `CN1C(C(=O)Nc2ccc(F)c(Cl)c2)CC(C(=O)NC2CCN(c3cc(CN4CCCCC4)ccn3)CC2)NS1(=O)=O` (single isomer, unassigned; isomer-b) [Compound 975-ISOMER-B, N3-(3-chloro-4-fluroo-phenyl)-2-methyl-1,1-dioxo-N5-[1-[4-(1-piperidylmethyl)-2-pyridyl]-4-piperidyl]-1,2,6-thiadiazinane-3,5-dicarboxamide] is 100 to 10000 nM.

The experiment is the same for the next values; noted with them: Hepatitis B virus, HePAD38, 120 h, 5 days incubation, qPCR of supernatant HBV DNA vs DMSO control, read-out: viral load lowering EC50 (Activity).
Turning to `Cc1csc(CNC(=O)C2CC(C(=O)Nc3ccc(F)c(Cl)c3)N(C)S(=O)(=O)N2)n1` (single isomer, unassigned) [Compound 686-ISOMER-A, N3-(3-chloro-4-fluoro-phenyl)-2-methyl-N5-[(4-methylthiazol-2-yl)methyl]-1,1-dioxo-1,2,6-thiadiazinane-3,5-dicarboxamide], the EC50 lay in the range of 100 to 10000 nM. For `CN1C(C(=O)Nc2ccc(F)c(Cl)c2)CC(C(=O)NC2CCN(Cc3cccnc3Br)CC2)NS1(=O)=O` (centres unmarked) [Compound 1033], the 50% effective concentration (EC50) was 100 to 10000 nM. Regarding `CN1C(C(=O)Nc2ccc(F)c(Cl)c2)CC(C(=O)NCc2cnc(-c3ccc(C#N)cc3F)s2)NS1(=O)=O` (centres unmarked) [Compound 920], the EC50 is less than 50 nM.

Turning to `CN1C(C(=O)Nc2ccc(F)c(Cl)c2)CC(C(=O)NCc2ccccc2N2CCCCC2)NS1(=O)=O` (centres unmarked) [Compound 906], the EC50 lay within 100 to 10000 nM. Consider `Cc1nc(-c2ccc(F)cc2)sc1CNC(=O)C1CC(C(=O)Nc2ccc(F)c(Cl)c2)N(C)S(=O)(=O)N1` (centres unmarked) [Compound 1056], for which the EC50 is less than 50 nM. Regarding `Cc1cccnc1N1CCC(NC(=O)C2CC(C(=O)Nc3ccc(F)c(Cl)c3)N(C)S(=O)(=O)N2)CC1` (centres unmarked) [Compound 1074], the EC50 is less than 50 nM. Still for that read-out and setting: the figure for `CN1C(C(=O)Nc2ccc(F)c(Cl)c2)C[C@@H](C(=O)N[C@H](c2ccccc2)c2cnc(-c3ccccc3)s2)NS1(=O)=O` (single isomer, unassigned) [1067-ISOMER-C] is less than 50 nM; for `Cc1cn(-c2ccccc2)nc1CNC(=O)C1CC(C(=O)Nc2ccc(F)c(C#N)c2)N(C)S(=O)(=O)N1` (single isomer, unassigned) [1134-ISOMER-A, N3-(3-cyano-4-fluoro-phenyl)-2-methyl-N5-[(4-methyl-1-phenyl-pyrazol-3-yl)methyl]-1,1-dioxo-1,2,6-thiadiazinane-3,5-dicarboxamide] it is 100 to 10000 nM. In the case of `CN1C(C(=O)Nc2ccc(F)c(C#N)c2)CC(C(=O)NCc2cccc(Cl)c2)NS1(=O)=O` (centres unmarked) [Compound 837], the EC50 is less than 50 nM.

For the molecule `Cc1cn(-c2ccccc2)nc1CNC(=O)C1CC(C(=O)Nc2ccc(F)c(Cl)c2)N(C)S(=O)(=O)N1` (single isomer, unassigned) [1057-ISOMER-A, N3-(3-chloro-4-fluoro-phenyl)-2-methyl-N5-[(4-methyl-1-phenyl-pyrazol-3-yl)methyl]-1,1-dioxo-1,2,6-thiadiazinane-3,5-dicarboxamide], the EC50 was less than 50 nM. For `CN1C(C(=O)Nc2ccc(F)c(Cl)c2)CC(C(=O)NC2CCN(c3ccnc(Br)c3)CC2)NS1(=O)=O` (single isomer, unassigned) [1036-ISOMER-A, N5-[1-(2-bromo-4-pyridyl)-4-piperidyl]-N3-(3-chloro-4-fluoro-phenyl)-2-methyl-1,1-dioxo-1,2,6-thiadiazinane-3,5-dicarboxamide], the half-maximal effective concentration (EC50) was less than 50 nM.

Regarding `CN1C(C(=O)Nc2ccc(F)c(Cl)c2)CC(C(=O)NC2CC2c2ccccc2)NS1(=O)=O` (centres unmarked) [Compound 476], the concentration for a half-maximal effect (EC50) lay within 50 to 100 nM. On to `CN1C(C(=O)Nc2ccc(F)c(Cl)c2)CC(C(=O)NCc2cccc(Cl)c2)NS1(=O)=O` (single isomer, unassigned) [Compound 730-ISOMER-A, N3-(3-chloro-4-fluoro-phenyl)-N5-[(3-chlorophenyl)methyl]-2-methyl-1,1-dioxo-1,2,6-thiadiazinane-3,5-dicarboxamide], for which the EC50 was less than 50 nM. On the same count and under the same terms, the value for `Cc1nc(-c2ccccc2F)sc1[C@@H](NC(=O)C1CC(C(=O)Nc2ccc(F)c(Cl)c2)N(C)S(=O)(=O)N1)c1ccccc1` (single isomer, unassigned) [1101-ISOMER-B] was 100 to 10000 nM. For `COc1ccc(-c2ncc(CNC(=O)C3CC(C(=O)Nc4ccc(F)c(Cl)c4)N(C)S(=O)(=O)N3)s2)c(Cl)c1` (centres unmarked) [Compound 988], the half-maximal effective concentration (EC50) is less than 50 nM. Same read-out and setting: the figure for `CCn1ccc(CNC(=O)C2CC(C(=O)Nc3ccc(F)c(Cl)c3)N(C)S(=O)(=O)N2)n1` (centres unmarked) [Compound 745] is 50 to 100 nM; for `CN1C(C(=O)Nc2ccc(F)c(Cl)c2)CC(C(=O)N[C@@H](c2ccccc2)c2cnc(-c3ccc(Cl)cc3)s2)NS1(=O)=O` (single isomer, unassigned) [1068-ISOMER-D] it is 100 to 10000 nM; for `CN1C(C(=O)Nc2ccc(F)c(Cl)c2)CC(C(=O)NCc2sc(-c3ccccc3Cl)nc2C(F)(F)F)NS1(=O)=O` (centres unmarked) [Compound 1064] it is less than 50 nM.

Turning to `CN1C(C(=O)Nc2ccc(F)c(Cl)c2)CC(C(=O)NCc2cnc(-c3ccc(C#CCN4CCCCC4)cc3)s2)NS1(=O)=O` (centres unmarked) [Compound 946], the EC50 fell in the range of 50 to 100 nM.

`CN1C(C(=O)Nc2ccc(F)c(Cl)c2)CC(C(=O)NCc2csc(-c3ccc(OCCN4CCCCC4)cc3)n2)NS1(=O)=O` (centres unmarked) [Compound 957]: the EC50 was less than 50 nM.
